From patent US5091386A, “7-substituted derivatives of 3,5-dihydroxyhept-6-ynoic acids and corresponding lactones and their use as hypercholeserolemics” (Hoechst Aktiengesellschaft, priority 1988, dated 1992)
pIC50: −log10 of the molar value.

Assays:
[1] = target: T1, HMG-CoA reductase (Rattus norvegicus, UniProt P51639); assay: HMG-CoA reductase activity in enzyme preparations (solubilized enzyme from liver microsomes of rats); type: biochemical; conditions: (SmR) 14C-HMG-CoA substrate
T1 construct: solubilized enzyme preparations from liver microsomes of rats; from tissue; host or cells: rat liver microsomes (solubilized), rats induced with cholestyramine
T1 sequence (P51639 1-887): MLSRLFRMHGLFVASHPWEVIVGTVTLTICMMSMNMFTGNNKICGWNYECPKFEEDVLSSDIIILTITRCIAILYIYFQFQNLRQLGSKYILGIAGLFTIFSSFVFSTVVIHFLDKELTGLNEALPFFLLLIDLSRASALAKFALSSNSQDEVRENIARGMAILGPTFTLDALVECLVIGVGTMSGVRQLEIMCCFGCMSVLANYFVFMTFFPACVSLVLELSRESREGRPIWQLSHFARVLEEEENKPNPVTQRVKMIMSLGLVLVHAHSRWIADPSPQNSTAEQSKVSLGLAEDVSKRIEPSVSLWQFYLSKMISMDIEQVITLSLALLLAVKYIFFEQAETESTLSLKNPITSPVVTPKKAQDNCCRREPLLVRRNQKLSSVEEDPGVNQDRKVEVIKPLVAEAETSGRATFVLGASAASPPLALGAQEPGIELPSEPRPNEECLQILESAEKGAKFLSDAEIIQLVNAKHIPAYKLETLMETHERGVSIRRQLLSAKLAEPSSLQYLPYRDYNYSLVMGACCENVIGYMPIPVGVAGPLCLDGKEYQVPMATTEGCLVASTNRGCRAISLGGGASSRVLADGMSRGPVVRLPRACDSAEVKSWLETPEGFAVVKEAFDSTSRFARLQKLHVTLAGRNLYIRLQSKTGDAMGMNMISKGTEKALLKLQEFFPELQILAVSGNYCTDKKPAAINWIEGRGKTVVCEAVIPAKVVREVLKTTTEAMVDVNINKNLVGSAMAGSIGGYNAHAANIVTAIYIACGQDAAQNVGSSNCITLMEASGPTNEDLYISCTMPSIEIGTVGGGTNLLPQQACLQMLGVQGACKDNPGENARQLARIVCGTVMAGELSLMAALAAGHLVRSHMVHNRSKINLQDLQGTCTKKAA
Procedure: The HMG-CoA reductase activity was measured on solubilized enzyme preparations from liver microsomes of rats which had been induced with cholestyramine (®Cuemid) after changing the day/night rhythm. (Sm R) ^14 C-HMG-CoA was used as substrate, and the concentration of NADPH was maintained during the incubation by a regenerating system. ^14 C-mevalonate was separated from the substrate and other products (for example ^14 C-HMG) by column elution, with the elution profile of each individual sample being determined. ^3 H-Mevalonate was not always included because the object was to determine relative data on the inhibitory effect. In each test series the enzyme-free control, the enzyme-containing normal mixture (=100%) and those with added product, final concentration 10^-5 to 10^-9 M, were treated together. Each individual value was formed as the mean of 3 parallel samples. The significance of the differences between means for product-free and product-containing samples was assessed by the t test.
Using the method described above, for example, the following values for the inhibition of HMG-CoA reductase were found for the compounds according to the invention [IC50 /mol/liter denotes the molar concentration of the compound per liter required for a 50% inhibition]. […]

[2] = system: cholesterol biosynthesis in HEP-G2 cells; assay: Inhibition of cholesterol biosynthesis in HEP-G2 cell cultures; type: cell-based; conditions: for pIC50: Homo sapiens, HepG2, 14C-cholesterol formed from 14C-precursor; for relative activity (IC50 ref./IC50): vs analogous hept-6E-enoic acid derivative
Procedure: Monolayers of HEP-G2 cells in lipoprotein-free nutrient medium were preincubated with the appropriate concentrations of the test substances for a defined time (for example 1 hour) and, after addition of the labeled precursor, for example sodium ^14 C-acetate, the incubation was continued (for example for 3 hours). After addition of an internal standard (^3 H-cholesterol) a portion of the cells was subjected to alkaline hydrolysis. The lipids from the hydrolyzed cells were extracted with chloroform/methanol. This lipid mixture was, after addition of carrier cholesterol, subjected to preparative thin-layer chromatography, the cholesterol band was visualized with iodine vapor and then isolated, and the amount of ^14 C-cholesterol formed from the ^14 C-precursor was determined by scintigraphy. Cell protein was determined in an aliquot of the cells so that it is possible to calculate the amount of ^14 C-cholesterol formed in unit time per mg of cell protein. The inhibitory effect of the particular test product on cholesterol biosynthesis by HEP-G2 cell cultures emerged by comparison of this figure with the amount of ^14 C-cholesterol formed per mg of cell protein and unit time in a culture treated in the same way but free of test substance.
Testing of substances for inhibition of cholesterol biosynthesis in confluent cell cultures (monolayers) of HEP-G2 cells [drawing 17]
Using the method described above, for example the following figures for the inhibition of cholesterol biosynthesis (in HEP-G2 cells) were found for the compounds according to the invention (the IC50 /mol is that concentration of the compound which brings about 50% inhibition of cholesterol biosynthesis). IC50 values were determined for the compounds according to the invention as well as for identically substituted 3,5-dihydroxyhept6E-enoic acid derivatives (IC50 ref.). The quotient IC50 ref./IC50 yielded the relative activity of the compounds according to the invention. […] This corresponds to a relative activity of 1.6 based on the analogous hept-6E-enoic acid derivative.

| SMILES | pIC50 [1] | pIC50 [2] | relative activity (IC50 ref./IC50) [2] |
| --- | --- | --- | --- |
| CC(C)c1nc(-c2ccccc2)cc(-c2ccc(F)cc2)c1C#C[C@@H](O)C[C@@H](O)CC(=O)O (relative stereo) [Example 7a, sodium 3RS, 5SR-dihydroxy-7-(4-(4-fluorophenyl)-2-(1-methylethyl)-6-phenylpyridin-3-yl)hept-6-ynoate] | 8.52 | – | – |
| CC(C)C(C#C[C@@H](O)C[C@@H](O)CC(=O)O)=C(c1ccc(F)cc1)c1ccc(F)cc1 (relative stereo) [Example 7l] | 8.24 | – | – |
| CC(C)c1nc(-c2ccccc2)cc(-c2ccc(F)cc2)c1C#C[C@@H]1C[C@@H](O)CC(=O)O1 (relative stereo) [Example 8a, 6RS-2-(4-(4-Fluorophenyl)-2-(1-methylethyl)-6-phenylpyridin-3-yl)ethynyl-4SR-hydroxy-3,4,5,6-tetrahydro-2H-pyran-2-one] | – | 8.05 | 2.67 |
| CC(C)c1nc(-c2ccc(F)cc2)nc(-c2ccc(F)cc2)c1C#C[C@@H]1C[C@@H](O)CC(=O)O1 (relative stereo) [Example 8e] | – | 7.96 | 1.6 |
